Results reported in patent publication EP0555116B1, “Compositions based on antiseptics and their applications” (HUTCHINSON, priority 1992, dated 1993).

How the values were obtained:
[1] = system: E. coli ATCC 11229; experiment: Disinfection time test (Essai 2, Tables D-F), reaction at 22°, subcultures 72 h at 37°C; assay type: cell-based, Escherichia coli
Method: (§1) Un autre essai a été réalisé à partir des solutions suivantes : • 100 ml d'une solution à 0,1 % de digluconate de chlorhexidine (pH 6) et • 100 ml d'une solution à 0,1 % de Bardac 22®.
(§2) Les tests ont été réalisés conformément au protocole décrit dans le Chapitre I/2.1 et 2.2 de Richtlinien für die Prüfung und Bewertung chemischer Desinfektionsverfahren der DGHM, Stand 1.1., 1981).
(§3) Les tests dont les résultats sont illustrés aux Tableaux D, E et F ont été réalisés à une température de réaction de 22° avec une incubation des sous-cultures 72 heures à 37°C avec comme substances inactivantes : Tween® 80 3 % + saponine 3 % + cystéine 0,1 % + histidine 0,1 %; ces Tableaux illustrent respectivement l'activité bactéricide et fongicide d'une solution aqueuse à 0,1 % de digluconate de chlorhexidine, d'une solution aqueuse à 0,1 % de Bardac 22® et d'un mélange à part égale des deux composés et montrent l'action des antiseptiques précités, en fonction du temps de contact, et font apparaître la même synergie d'action de l'association que ci-dessus, dans la mesure où l'association des deux composés permet de diminuer significativement leur concentration, pour l'obtention d'un même effet. TABLEAU D

[2] = system: S. aureus ATCC 6538; experiment: as above; assay type: cell-based, Staphylococcus aureus
Method: as §1, §2, §3

[3] = system: E. coli ATCC 11229; experiment: Growth inhibition test (DGHM, Essai 2, Tables A-C), 72 h at 37°C; non/A/B/C = without or with inactivating substances A, B, C; assay type: cell-based, Escherichia coli
Method: as §1
L'activité de ces solutions, seules ou en combinaison a été plus particulièrement testée vis-à-vis de Staphylococcus aureus ATCC 6538, Escherichia coli ATCC 11229 et Candida albicans ATCC 10231.
as §2
Les Tableaux A, B et C illustrent respectivement l'activité bactéricide et fongicide d'une solution aqueuse à 0,1 % de digluconate de chlorhexidine, d'une solution aqueuse à 0,1 % de Bardac 22® et d'un mélange à part égale des deux composés. Les protocoles dont ces Tableaux illustrent les résultats comprennent une incubation de 72 heures à 37°C et l'utilisation, comme témoins, des substances inactivantes suivantes : A : Tween® 80 3 % + lécithine 0,3 % + cystéine 0,1 %; B : Tween® 80 3 % + saponine 3 % + cystéine 0,1 % + histidine 0,1 %; C : Tween® 80 3 % + lécithine 0,3 % + histidine 0,1 % + thiosulfate de sodium 0,5 %.
Dans ces Tableaux, le signe "+" indique une croissance et le signe "-" l'absence de croissance.

CCCCCCCCCC[N+](C)(C)CCCCCCCCCC [Bardac®, chlorure de didécyldiméthylammonium]
croissance ([1]; Conc. 0,1 % (vol/vol), 1 min): +
croissance ([1]; Conc. 0,1 % (vol/vol), 3 min): +
croissance ([1]; Conc. 0,1 % (vol/vol), 5 min): +
croissance ([1]; Conc. 0,1 % (vol/vol), 15 min): +
croissance ([1]; Conc. 0,1 % (vol/vol), 30 min): +
croissance ([1]; Conc. 0,1 % (vol/vol), 60 min): +
croissance ([1]; Conc. 0,05 % (vol/vol), 1 min): +
croissance ([1]; Conc. 0,5 % (vol/vol), 1 min): +
croissance ([1]; Conc. 0,05 % (vol/vol), 3 min): +
croissance ([1]; Conc. 0,5 % (vol/vol), 3 min): +
croissance ([1]; Conc. 0,05 % (vol/vol), 5 min): +
croissance ([1]; Conc. 0,5 % (vol/vol), 5 min): +
croissance ([1]; Conc. 0,05 % (vol/vol), 15 min): +
croissance ([1]; Conc. 0,5 % (vol/vol), 15 min): +
croissance ([1]; Conc. 0,05 % (vol/vol), 30 min): +
croissance ([1]; Conc. 0,5 % (vol/vol), 30 min): +
croissance ([1]; Conc. 0,05 % (vol/vol), 60 min): +
croissance ([1]; Conc. 0,5 % (vol/vol), 60 min): +
croissance ([1]; Conc. 1 % (vol/vol), 1 min): +
croissance ([1]; Conc. 1 % (vol/vol), 3 min): +
croissance ([1]; Conc. 1 % (vol/vol), 5 min): +
croissance ([1]; Conc. 1 % (vol/vol), 15 min): +
croissance ([1]; Conc. 1 % (vol/vol), 30 min): +
croissance ([1]; Conc. 1 % (vol/vol), 60 min): +
croissance ([1]; Conc. 5 % (vol/vol), 1 min): +
croissance ([1]; Conc. 5 % (vol/vol), 3 min): +
croissance ([1]; Conc. 5 % (vol/vol), 5 min): +
croissance ([1]; Conc. 5 % (vol/vol), 15 min): -
croissance ([1]; Conc. 5 % (vol/vol), 30 min): -
croissance ([1]; Conc. 5 % (vol/vol), 60 min): -
croissance ([1]; Conc. 10 % (vol/vol), 1 min): +
croissance ([1]; Conc. 10 % (vol/vol), 3 min): +
croissance ([1]; Conc. 10 % (vol/vol), 5 min): -
croissance ([1]; Conc. 10 % (vol/vol), 15 min): -
croissance ([1]; Conc. 10 % (vol/vol), 30 min): -
croissance ([1]; Conc. 10 % (vol/vol), 60 min): -
croissance ([1]; Conc. 25 % (vol/vol), 1 min): -
croissance ([1]; Conc. 25 % (vol/vol), 3 min): -
croissance ([1]; Conc. 25 % (vol/vol), 5 min): -
croissance ([1]; Conc. 25 % (vol/vol), 15 min): -
croissance ([1]; Conc. 25 % (vol/vol), 30 min): -
croissance ([1]; Conc. 25 % (vol/vol), 60 min): -
croissance ([2]; Conc. 0,1 % (vol/vol), 1 min): +
croissance ([2]; Conc. 0,1 % (vol/vol), 3 min): +
croissance ([2]; Conc. 0,1 % (vol/vol), 5 min): +
croissance ([2]; Conc. 0,1 % (vol/vol), 15 min): +
croissance ([2]; Conc. 0,1 % (vol/vol), 30 min): +
croissance ([2]; Conc. 0,1 % (vol/vol), 60 min): +
croissance ([2]; Conc. 0,05 % (vol/vol), 1 min): +
croissance ([2]; Conc. 0,5 % (vol/vol), 1 min): +
croissance ([2]; Conc. 0,05 % (vol/vol), 3 min): +
croissance ([2]; Conc. 0,5 % (vol/vol), 3 min): +
croissance ([2]; Conc. 0,05 % (vol/vol), 5 min): +
croissance ([2]; Conc. 0,5 % (vol/vol), 5 min): +
croissance ([2]; Conc. 0,05 % (vol/vol), 15 min): +
croissance ([2]; Conc. 0,5 % (vol/vol), 15 min): +
croissance ([2]; Conc. 0,05 % (vol/vol), 30 min): +
croissance ([2]; Conc. 0,5 % (vol/vol), 30 min): +
croissance ([2]; Conc. 0,05 % (vol/vol), 60 min): +
croissance ([2]; Conc. 0,5 % (vol/vol), 60 min): +
croissance ([2]; Conc. 1 % (vol/vol), 1 min): +
croissance ([2]; Conc. 1 % (vol/vol), 3 min): +
croissance ([2]; Conc. 1 % (vol/vol), 5 min): +
croissance ([2]; Conc. 1 % (vol/vol), 15 min): +
croissance ([2]; Conc. 1 % (vol/vol), 30 min): -
croissance ([2]; Conc. 1 % (vol/vol), 60 min): -
croissance ([2]; Conc. 5 % (vol/vol), 1 min): +
croissance ([2]; Conc. 5 % (vol/vol), 3 min): +
croissance ([2]; Conc. 5 % (vol/vol), 5 min): +
croissance ([2]; Conc. 5 % (vol/vol), 15 min): -
croissance ([2]; Conc. 5 % (vol/vol), 30 min): -
croissance ([2]; Conc. 5 % (vol/vol), 60 min): -
croissance ([2]; Conc. 10 % (vol/vol), 1 min): +
croissance ([2]; Conc. 10 % (vol/vol), 3 min): -
croissance ([2]; Conc. 10 % (vol/vol), 5 min): -
croissance ([2]; Conc. 10 % (vol/vol), 15 min): -
croissance ([2]; Conc. 10 % (vol/vol), 30 min): -
croissance ([2]; Conc. 10 % (vol/vol), 60 min): -
croissance ([2]; Conc. 25 % (vol/vol), 1 min): +
croissance ([2]; Conc. 25 % (vol/vol), 3 min): -
croissance ([2]; Conc. 25 % (vol/vol), 5 min): -
croissance ([2]; Conc. 25 % (vol/vol), 15 min): -
croissance ([2]; Conc. 25 % (vol/vol), 30 min): -
croissance ([2]; Conc. 25 % (vol/vol), 60 min): -
croissance ([3]; Conc. 0,1 % (vol/vol), A): +
croissance ([3]; Conc. 0,1 % (vol/vol), B): +
croissance ([3]; Conc. 0,1 % (vol/vol), C): +
croissance ([3]; Conc. 0,1 % (vol/vol), non): +
croissance ([3]; Conc. 0,05 % (vol/vol), A): +
croissance ([3]; Conc. 0,5 % (vol/vol), A): +
croissance ([3]; Conc. 0,05 % (vol/vol), B): +
croissance ([3]; Conc. 0,5 % (vol/vol), B): +
croissance ([3]; Conc. 0,05 % (vol/vol), C): +
croissance ([3]; Conc. 0,5 % (vol/vol), C): +
croissance ([3]; Conc. 0,05 % (vol/vol), non): +
croissance ([3]; Conc. 0,5 % (vol/vol), non): -
croissance ([3]; Conc. 1,0 % (vol/vol), A): +
croissance ([3]; Conc. 1,0 % (vol/vol), B): +
croissance ([3]; Conc. 1,0 % (vol/vol), C): +
croissance ([3]; Conc. 1,0 % (vol/vol), non): -
croissance ([3]; Conc. 0,00625 % (vol/vol), A): +
croissance ([3]; Conc. 0,00625 % (vol/vol), B): +
croissance ([3]; Conc. 0,00625 % (vol/vol), C): +
croissance ([3]; Conc. 0,00625 % (vol/vol), non): +
croissance ([3]; Conc. 0,0125 % (vol/vol), A): +
croissance ([3]; Conc. 0,0125 % (vol/vol), B): +
croissance ([3]; Conc. 0,0125 % (vol/vol), C): +
croissance ([3]; Conc. 0,0125 % (vol/vol), non): +
croissance ([3]; Conc. 0,025 % (vol/vol), A): +
croissance ([3]; Conc. 0,025 % (vol/vol), B): +
croissance ([3]; Conc. 0,025 % (vol/vol), C): +
croissance ([3]; Conc. 0,025 % (vol/vol), non): +
concentration en substance active inhibant la croissance ([3]; antiseptique seul): 0,0005%
